# Legend:
# HRV B14 = assay: CPE inhibition assay, HRV B14; type: cell-based; conditions: Human rhinovirus sp.
# [1] = Cytotoxicity in mock-infected cells (MTT/MTS); type: cell-based; conditions: human, read-out: CYTOTOX (EC50 μM)
# Experimental: In the assay, HeLa (human cervical cancer cells), MRC-5 (human fetal lung fibroblast cells), and RD cells (derived from human rhabdomyosarcoma) were employed. For comparison, ribavirin (Riv), Pleconaril (pleco), and BTA-798 (BTA) were used as controls. Reagents were dissolved at a concentration of 10-40 mg/ml in 100% dimethyl sulfoxide (DMSO). Water-soluble reagents were dissolved in PBS (−) solution and stored at −20° C. On the day of the experiment, they were used in 3 fold to 5 fold concentrations in such a manner that the concentration of dimethyl sulfoxide in each well was between 0.5% and 1%.
# For HeLa cells, the drugs were measured for EC50 (50% maximal effective concentration), which is the concentration of a drug inducing a response halfway between the baseline and maximum, using an MTT assay. With regard to RD and MRC-5 cells, CPE was determined using FDA (Fluorescein diacetate) or MTT. In order to determine the effect of drug toxicity on efficacy results, at the time of inoculation with the virus, mock-infection was also included. A virus-free medium was added to a cell culture, which was then subjected to the same treatment as the virus-infected cells inoculated with the virus. That is, the medium was removed after one hour of incubation, and dilutions of drugs in the medium were added once more. Following incubation for 2-3 days, the cells were observed under a microscope and the drugs were determined for CC50 (50% cytotoxic concentration) at which 50% of the cells were killed, using an MTT assay in which counts of viable cells in mock-infected wells containing drugs were compared to those of viable cells in control wells containing no drugs. In an FDA hydrolysis assay, FDA was added to each well after removal of the medium, and incubated for 20-30 min before fluorescence intensity was measured using a spectrofluorometer to determine CPE in the same manner as in MTT.
# That is, the survival rate (% survival) of mock-infected cells for cytotoxicity measurement was calculated using the Mathematical Formula 1 below: Cell Drug=Survival by [A (Drug)−A (Background solution)/A (Cell control)−(Background×100% Solution)]
# While 100% cell survival means no cytotoxicity of the drug, the highest cytotoxicity is reflected by 0% cell survival. The 50% cytotoxic concentration was defined as the concentration required to reduce the cell number by 50%. This concentration of the drug is represented as CC50. Higher values mean lower cytotoxicity.
# The % CPE value for measuring cytotoxicity of a drug was calculated by Mathematical Formula 4 below: % CPE=100×[OD (CC)−OD (Virus+Compound)/OD (CC)−OD (Blank)] In Mathematical Formulae 3 and 4 above, • OD (CC) represents the OD of the background cell culture that is neither induced by a virus nor treated by chemical, • OD (VC) represents the OD of the control cell culture that is induced by a virus but not treated by chemical, • OD (Virus+Compound) represents the OD of the cell culture infected by a virus that has been treated with a concentrated compound, • OD (Compound) represents the OD of the cell culture that has been treated with a concentrated compound only, and OD (Blank) represents the OD of the well to which only the cell culture has been added.
# The effective concentration (EC50) represents the concentration of a drug at which 50% of cells are allowed to survive by CPE of an induced virus, and the cytotoxicity concentration (CC50) represents the concentration of a drug at which a compound has killed 50% of cells, and they were calculated by the logarithmic interpolation.
# HRV A16 = assay: CPE inhibition assay, HRV A16; type: cell-based; conditions: Human rhinovirus sp., read-out: A16_CPE (EC50 μM)
# poliovirus 1 (PV1) = assay: microbe, parasite or virus in culture; type: cell-based; conditions: Enterovirus C, read-out: PV1 (EC50 μM)
# [2] = test system: coxsackievirus B4 (Cox B4); assay: CPE inhibition assay, coxsackievirus B4; type: cell-based; conditions: Enterovirus B
# C15_C3 REP = conditions: human, C15 C3 REP (cell-based assay)
# [3] = in vivo, cited from earlier work
# [4] = test system: 48 rhinovirus types and coxsackievirus A21. B3, enterovirus 70 and echovirus 11; conditions: coxsackievirus A21, B3, enterovirus 70, echovirus 11; cited from earlier work
# [5] = in vivo; cited from earlier work
# [6] = in vivo; cited from earlier work; remark: listed apart in the source
# [7] = cited from earlier work
Compound,EC50 (HRV B14) [µM],CC50 [1] [µM],EC50 (HRV A16) [µM],EC50 (poliovirus 1 (PV1)) [µM],EC50 [2] [µM],CC50 (C15_C3 REP) [nM],further results
"CC(=O)NC12C(=O)c3c(N)cccc3C1(O)Oc1cc(OC(F)(F)F)ccc12 (racemic) [Example 10, N-(1-amino-4b-hydroxy-10-oxo-7-(trifluoromethoxy)-4b,10-dihydro-9bH-indeno[1,2-b]benzofuran-9b-yl)acetamide]",0.056,≥ 50,39.8,0.335,0.00303,50000,–
"CC(=O)N[C@]12C(=O)c3c(N)cccc3[C@@]1(O)Oc1cc(C3CC3)ccc12 (single isomer, unassigned) [Example 8]",0.025,≥ 50,7.85,0.028,0.00093,50000,–
CCC(=O)C(CCCCCCOc1ccc(OC)cc1Cl)C(=O)CC [arildone],–,–,–,–,–,–,bioavailability [3]: low bioavailability
"CC(=O)N[C@]12C(=O)c3c(N)cccc3[C@@]1(O)Oc1cc(Cl)ccc12 (single isomer, unassigned) [Example 14]",–,≥ 50,–,–,0.00182,–,–
"COc1ccc2c(c1)O[C@]1(O)c3cccc(N)c3C(=O)[C@]21NC(C)=O (single isomer, unassigned) [Example 23]",–,≥ 50,–,–,0.00293,–,–
"CC(=O)N[C@@]12C(=O)c3c(N)cccc3[C@]1(O)Oc1cc(C)ccc12 (single isomer, unassigned) [Example 18]",–,≥ 50,–,–,0.383,25000,–
CCOC(=O)/C=C/[C@H](C[C@@H]1CCNC1=O)NC(=O)[C@@H](CC(=O)[C@@H](NC(=O)c1cc(C)on1)C(C)C)Cc1ccc(F)cc1 [AG 7088],–,–,–,–,–,–,effect in the cell culture [4]: nanomolar concentration range
"CC(=O)N(C)C12C(=O)c3c(N)cccc3C1(O)Oc1cc(C(F)(F)F)ccc12 (stereo not shown) [Example 21, N-(1-amino-4b-hydroxy-10-oxo-7-(trifluoromethyl)-4b,10-dihydro-9bH-indeno[1,2-b]benzofuran-9b-yl)-N-methylacetamide]",–,≥ 50,–,–,0.0032,25000,–
"CC(=O)N[C@]12C(=O)c3c(N)cccc3[C@@]1(O)Oc1cc(Br)ccc12 [Example 6, N-((4bR,9bR)-1-amino-7-bromo-4b-hydroxy-10-oxo-4b,10-dihydro-9bH-indeno[1,2-b]benzofuran-9b-yl)acetamide]",0.049,≥ 50,43.3,–,0.00098,50000,–
"CC(=O)NC12C(=O)c3c(N)cccc3C1(O)Oc1cc(Cl)ccc12 (racemic) [Example 13, N-(1-amino-7-chloro-4b-hydroxy-10-oxo-4b,10-dihydro-9bH-indeno[1,2-b]benzofuran-9b-yl)acetamide]",–,≥ 50,–,0.295,0.00267,–,–
"CC(=O)NC12C(=O)c3c(N)cccc3C1(O)Oc1ccc(C)cc12 (racemic) [Example 19, N-(1-amino-4b-hydroxy-8-methyl-10-oxo-4b,10-dihydro-9bH-indeno[1,2-b]benzofuran-9b-yl)acetamide]",0.666,≥ 50,50,3.24,0.00871,25000,–
"CC(=O)N[C@]12C(=O)c3c(N)cccc3[C@@]1(O)Oc1cc(C)ccc12 (single isomer, unassigned) [Example 17]",–,≥ 50,–,0.11,0.00174,–,–
"CC(=O)N[C@@]12C(=O)c3c(N)cccc3[C@]1(O)Oc1cc(Cl)ccc12 (single isomer, unassigned) [Example 15]",–,≥ 50,–,–,0.29,25000,–
"CC(=O)NC12C(=O)c3c(N)cccc3C1(O)Oc1cc(C)ccc12 (racemic) [Example 16, N-(1-amino-4b-hydroxy-7-methyl-10-oxo-4b,10-dihydro-9bH-indeno[1,2-b]benzofuran-9b-yl)acetamide]",0.076,≥ 50,50,–,0.00374,–,–
"CC(=O)N[C@@]12C(=O)c3c(N)cccc3[C@]1(O)Oc1cc(C3CC3)ccc12 (single isomer, unassigned) [Example 9]",3.21,≥ 50,50,–,0.0862,50000,–
"CC(=O)NC12C(=O)c3c(N)cccc3C1(O)Oc1cc(C(F)(F)F)ccc12 (racemic) [Example 3, N-(1-amino-4b-hydroxy-10-oxo-7-(trifluoromethyl)-4b,10-dihydro-9bH-indeno[1,2-b]benzofuran-9b-yl)acetamide]",0.019,≥ 50,50,–,0.00201,21400,–
Cc1cc(CCCCCOc2c(Cl)cc(C3=NCCO3)cc2Cl)on1 [WIN 54954],–,–,–,–,–,–,metabolization and excretion [5]: rapid metabolization and excretion; side effects [6]: skin rash
Cc1cc(CCCOc2c(C)cc(-c3noc(C(F)(F)F)n3)cc2C)on1 [Pleconaril],–,–,–,–,–,–,oral bioavailability ([3]; po): very good oral bioavailability
"CC(=O)NC12C(=O)c3c(N)cccc3C1(O)Oc1cc(C3CC3)ccc12 (racemic) [Example 7, N-(1-amino-7-cyclopropyl-4b-hydroxy-10-oxo-4b,10-dihydro-9bH-indeno[1,2-b]benzofuran-9b-yl)acetamide]",0.016,≥ 50,14.7,–,0.00168,50000,–
CC(C)S(=O)(=O)n1c(N)nc2ccc(/C(=N/O)c3ccccc3)cc21 [Enviroxime],–,–,–,–,–,–,therapeutic effects in clinical studies ([7]; clinical studies): insignificant or few therapeutic effects; pharmacokinetics in clinical studies ([7]; in vivo): bad pharmacokinetics; side effects in clinical studies ([7]; in vivo): unwanted side effects
"CC(=O)N[C@@]12C(=O)c3c(N)cccc3[C@]1(O)Oc1cc(OC(F)(F)F)ccc12 (single isomer, unassigned) [Example 12]",0.016,≥ 50,1.89,0.015,0.188,–,–
"CC(=O)N[C@@]12C(=O)c3c(N)cccc3[C@]1(O)Oc1cc(C(F)(F)F)ccc12 (single isomer, unassigned) [Example 5]",–,≥ 50,–,9.22,0.0442,25000,–
"CC(=O)N[C@]12C(=O)c3c(N)cccc3[C@@]1(O)Oc1ccc(C)cc12 (single isomer, unassigned) [Example 20]",–,≥ 50,–,2.17,0.00443,–,–
"CC(=O)N[C@]12C(=O)c3c(N)cccc3[C@@]1(O)Oc1cc(OC(F)(F)F)ccc12 (single isomer, unassigned) [Example 11]",–,≥ 50,–,–,0.0011,–,–
Cc1cc(CCCCCCCOc2ccc(C3=NCCO3)cc2)on1 [disoxaril],–,–,–,–,–,–,metabolization and excretion [5]: rapid metabolization and excretion; bioavailability [3]: low bioavailability
"CC(=O)N[C@]12C(=O)c3c(N)cccc3[C@@]1(O)Oc1cc(C(C)C)ccc12 (single isomer, unassigned) [Example 1]",0.016,≥ 50,1.89,0.015,0.00061,35100,–
"CC(=O)N[C@]12C(=O)c3c(N)cccc3[C@@]1(O)Oc1cc(C(F)(F)F)ccc12 (single isomer, unassigned) [Example 4]",–,≥ 50,–,0.041,0.00059,–,–

# — patent US12083092B2, “Antiviral 1,3-di-oxo-indene compounds” (Novartis AG, priority 2020, dated 2024)
